Columns and labels:
Ba/F3 cells, ABL1 WT = Ba/F3 cells, ABL1 WT (Homo sapiens, UniProt P00519); experiment: 96-well XTT cell survival assay, Ba/F3 ABL1 WT; assay type: cell-based; conditions: 72 hours, read-out: ABL1 WT XTT [Ba/F3] IC50
In short: (§1)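 Ba/F3 cells carrying wild-type or T315I ABL1 were seeded at 5000-8000 per well with graded compound concentrations in duplicate and grown 72 hours at 37° C. Survival was read by XTT/PMS reduction after a further 2-6 h, as absorbance at 405 nm with 650 nm background correction.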

Ba/F3 cells, ABL1 T315I = Ba/F3 cells, ABL1 T315I (Homo sapiens, UniProt P00519, T315I, cells depend on it); experiment: 96-well XTT cell survival assay, Ba/F3 ABL1 T315I; assay type: cell-based; conditions: 72 hours, read-out: ABL1 T315I XTT [Ba/F3] IC50
In short: as §1

[1] = target: T1, unphosphorylated T315I Abl kinase domain (Mus musculus, UniProt P00520, T315I); experiment: c-Abl T315I 0P bioassay (pyruvate kinase/lactate dehydrogenase coupled enzyme assay); assay type: biochemical; conditions: zero phosphorylation state (0P), 10 μM ATP, read-out: AbI T315I 0P IC50
T1 construct: purified and unphosphorylated T315I Abl kinase domain; made in house; host or cells: E. coli BL21(DE3) (Codon+RIL or pSA0145 strain)
T1 sequence (P00520 242-493 T315I limits assumed): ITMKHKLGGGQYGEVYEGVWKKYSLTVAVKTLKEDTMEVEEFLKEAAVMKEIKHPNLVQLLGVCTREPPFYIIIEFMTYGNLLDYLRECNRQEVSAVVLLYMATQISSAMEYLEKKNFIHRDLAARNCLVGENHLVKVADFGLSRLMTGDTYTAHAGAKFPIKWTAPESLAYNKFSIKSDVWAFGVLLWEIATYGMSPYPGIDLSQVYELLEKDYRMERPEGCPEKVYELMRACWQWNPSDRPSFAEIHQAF

Compound	GI50 (Ba/F3 cells, ABL1 WT)	GI50 (Ba/F3 cells, ABL1 T315I)	IC50 [1]
COC[C@H]1CCCN1C(=O)C(O)c1cccc(-c2cnc3[nH]nc(-c4ccccc4OC)c3c2)c1 (stereo partly drawn)	< 1000 nM	> 1000 nM	< 50 nM
COc1ccccc1-c1n[nH]c2ncc(-c3cccc(C(N)C(=O)N(C)C)c3)cc12 (stereo not drawn)	< 1000 nM	< 1000 nM	< 50 nM
CSc1ccccc1-c1c[nH]c2ncc(-c3cncc(C(O)C(=O)N(C)C)c3)cc12 (stereo not drawn)	< 1000 nM	< 1000 nM	< 50 nM
CN(C)C(=O)C(O)c1cncc(-c2cnc3[nH]cc(-c4cccc(C(F)(F)F)c4)c3c2)c1 (stereo not drawn)	> 1000 nM	> 1000 nM	< 50 nM
COc1ccccc1-c1c[nH]c2ncc(-c3cccc(C(O)C(=O)N(C)CCNC4CC4)c3)cc12 (stereo not drawn)	< 1000 nM	< 1000 nM	< 50 nM
COc1ccccc1-c1n[nH]c2ncc(-c3cccc(C(O)c4ncccc4C)c3)cc12 (stereo not drawn)	< 1000 nM	< 1000 nM	< 50 nM
COc1ccccc1-c1c[nH]c2ncc(-c3cncc([C@H](O)C(=O)N(C)C)c3)cc12	< 1000 nM	< 1000 nM	< 50 nM
COc1ccccc1-c1n[nH]c2ncc(-c3cccc(C(O)C(N)=O)c3)cc12 (stereo not drawn)	< 1000 nM	< 1000 nM	< 50 nM
COc1ccccc1-c1c[nH]c2ncc(-c3cncc(C(=O)C(=O)N(C)C)c3)cc12	< 1000 nM	< 1000 nM	< 50 nM
COc1ccccc1-c1n[nH]c2ncc(-c3cccc(C(O)C(=O)N(C)CCC#N)c3)cc12 (stereo not drawn)	< 1000 nM	< 1000 nM	< 50 nM
CN(C)C(=O)C(O)c1cncc(-c2cnc3[nH]cc(-c4ccc(C(N)=O)cc4)c3c2)c1 (stereo not drawn)	> 1000 nM	> 1000 nM	< 50 nM
CN(C)C(=O)C(O)c1cncc(-c2cnc3[nH]cc(-c4ccc(OC(F)(F)F)cc4)c3c2)c1 (stereo not drawn)	> 1000 nM	> 1000 nM	50 to 500 nM
CCN(C)C(=O)C(O)c1cncc(-c2cnc3[nH]cc(-c4ccccc4OC)c3c2)c1 (stereo not drawn)	< 1000 nM	< 1000 nM	< 50 nM
COc1ccccc1-c1n[nH]c2ncc(-c3cccc(C(C)C(=O)N(C)C4CCN(C)C4)c3)cc12 (stereo not drawn)	< 1000 nM	> 1000 nM	< 50 nM
CNCCN(C)C(=O)C(N)c1cccc(-c2cnc3[nH]cc(-c4ccccc4OC)c3c2)c1 (stereo not drawn)	> 1000 nM	> 1000 nM	< 50 nM
COc1ccccc1-c1n[nH]c2ncc(-c3cccc(C(O)C(=O)N(C)C4CCS(=O)(=O)C4)c3)cc12 (stereo not drawn)	< 1000 nM	> 1000 nM	< 50 nM
COc1ccccc1-c1n[nH]c2ncc(-c3cccc(C(N)C(=O)N(C)CCN(C)C)c3)cc12 (stereo not drawn)	> 1000 nM	> 1000 nM	< 50 nM
COc1ccccc1-c1n[nH]c2ncc(-c3cccc(C(O)C(=O)N(C)C)c3)cc12 (stereo not drawn)	< 1000 nM	< 1000 nM	< 50 nM
CN(C)C(=O)C(O)c1cncc(-c2cnc3[nH]cc(-c4ccccc4)c3c2)c1 (stereo not drawn)	< 1000 nM	< 1000 nM	< 50 nM

Compound	GI50 (Ba/F3 cells, ABL1 WT)	GI50 (Ba/F3 cells, ABL1 T315I)	IC50 [1]
COc1ccccc1-c1n[nH]c2ncc(-c3cccc(C(=O)C(=O)N(C)CCN(C)C)c3)cc12	< 1000 nM	< 1000 nM	< 50 nM
COc1ccccc1-c1c[nH]c2ncc(-c3cccc(C4(C)NC(=O)NC4=O)c3)cc12 (stereo not drawn)	< 1000 nM	> 1000 nM	< 50 nM
COc1ccccc1-c1n[nH]c2ncc(-c3cccc(C(C(=O)N(C)CCN(C)C)N(C)C)c3)cc12 (stereo not drawn)	> 1000 nM	> 1000 nM	50 to 500 nM
COc1ccccc1-c1n[nH]c2ncc(-c3cccc(C(O)C(=O)N4CCC(O)CC4)c3)cc12 (stereo not drawn)	> 1000 nM	> 1000 nM	< 50 nM
COc1ccccc1-c1n[nH]c2ncc(-c3cccc(C(O)C(=O)N4CCC[C@@H]4CO)c3)cc12 (stereo partly drawn)	< 1000 nM	< 1000 nM	< 50 nM
COc1ccccc1-c1c[nH]c2ncc(-c3cncc([C@@H](O)C(=O)N(C)C)c3)cc12	< 1000 nM	< 1000 nM	< 50 nM
COc1ccccc1-c1n[nH]c2ncc(-c3cccc(C(O)c4nccn4C)c3)cc12 (stereo not drawn)	< 1000 nM	> 1000 nM	< 50 nM
COc1ccccc1-c1c[nH]c2ncc(-c3cccc(C(O)C(=O)N4CC(O)C4)c3)cc12 (stereo not drawn)	< 1000 nM	> 1000 nM	< 50 nM
COc1ccccc1-c1c[nH]c2ncc(-c3cccc(C(O)CN)c3)cc12 (stereo not drawn)	> 1000 nM	> 1000 nM	< 50 nM
COc1ccccc1-c1c[nH]c2ncc(-c3cncc(C(O)C(=O)N(C)Cc4ccnn4C)c3)cc12 (stereo not drawn)	< 1000 nM	< 1000 nM	< 50 nM
COc1ccccc1-c1n[nH]c2ncc(-c3cncc(C(O)C(=O)N(C)C)c3)cc12 (stereo not drawn)	< 1000 nM	< 1000 nM	< 50 nM
COc1ccccc1-c1n[nH]c2ncc(-c3cccc(C(OC)C(=O)N(C)CCN(C)C)c3)cc12 (stereo not drawn)	< 1000 nM	< 1000 nM	< 50 nM
COc1ccccc1-c1n[nH]c2ncc(-c3cccc(C(C)C(=O)N4CCC(O)CC4)c3)cc12 (stereo not drawn)	< 1000 nM	> 1000 nM	< 50 nM
CN(C)C(=O)C(O)c1cncc(-c2cnc3[nH]cc(-c4cncnc4)c3c2)c1 (stereo not drawn)	> 1000 nM	> 1000 nM	> 500 nM
CNC(C(=O)N(C)C(C)C)c1cccc(-c2cnc3[nH]nc(-c4ccccc4OC)c3c2)c1 (stereo not drawn)	> 1000 nM	> 1000 nM	< 50 nM
CN(C)C(=O)C(O)c1cncc(-c2cnc3[nH]cc(-c4ccc(F)cc4)c3c2)c1 (stereo not drawn)	> 1000 nM	> 1000 nM	< 50 nM
CN(C)C(=O)C(O)c1cncc(-c2cnc3[nH]cc(-c4ccc(Cl)c(Cl)c4)c3c2)c1 (stereo not drawn)	> 1000 nM	> 1000 nM	< 50 nM
CC[C@@H]1OCO[C@H]1c1cccc(-c2cnc3[nH]nc(-c4ccccc4OC)c3c2)c1	> 1000 nM	> 1000 nM	< 50 nM
COc1ccccc1-c1n[nH]c2ncc(-c3cccc(C(C)C(=O)N4CC(O)C4)c3)cc12 (stereo not drawn)	> 1000 nM	> 1000 nM	< 50 nM

Compound	GI50 (Ba/F3 cells, ABL1 WT)	GI50 (Ba/F3 cells, ABL1 T315I)	IC50 [1]
COc1ccccc1-c1c[nH]c2ncc(-c3cncc(C(O)C(=O)N(C)C(C)C)c3)cc12 (stereo not drawn)	> 1000 nM	< 1000 nM	< 50 nM
COc1ccccc1-c1n[nH]c2ncc(-c3cccc([C@@H]4OCO[C@@H]4C(C)C)c3)cc12	> 1000 nM	> 1000 nM	< 50 nM
COc1ccccc1-c1n[nH]c2ncc(-c3cccc([C@H](O)[C@@H](O)C(C)C)c3)cc12	< 1000 nM	< 1000 nM	< 50 nM
COc1ccccc1-c1c[nH]c2ncc(-c3cccc(C(CC(=O)N4CCC[C@@H]4CO)N4CCS(=O)(=O)CC4)c3)cc12 (stereo partly drawn)	> 1000 nM	> 1000 nM	50 to 500 nM
COc1ccccc1-c1n[nH]c2ncc(-c3cccc(C(O)C(=O)N(C)Cc4ccco4)c3)cc12 (stereo not drawn)	> 1000 nM	> 1000 nM	< 50 nM
COc1ccccc1-c1c[nH]c2ncc(-c3cccc(C(O)C(=O)N(C)CC4CCN(C)CC4)c3)cc12 (stereo not drawn)	< 1000 nM	< 1000 nM	< 50 nM
CN(C)C(=O)C(O)c1cncc(-c2cnc3[nH]cc(-c4ccccc4OC(F)(F)F)c3c2)c1 (stereo not drawn)	< 1000 nM	> 1000 nM	< 50 nM
COc1ccccc1-c1n[nH]c2ncc(-c3cccc(C(C)C(=O)N4CCC(N(C)C)C4)c3)cc12 (stereo not drawn)	< 1000 nM	< 1000 nM	< 50 nM
COc1ccccc1-c1n[nH]c2ncc(-c3cccc([C@H]4OCO[C@@H]4C(C)C)c3)cc12	> 1000 nM	> 1000 nM	< 50 nM
CN(C)C(=O)C(O)c1cncc(-c2cnc3[nH]cc(-c4ccc(CO)cc4)c3c2)c1 (stereo not drawn)	> 1000 nM	> 1000 nM	< 50 nM
COc1ccccc1-c1c[nH]c2ncc(-c3cccc(C(C(=O)N(C)CCN(C)C)N4CCNCC4)c3)cc12 (stereo not drawn)	> 1000 nM	> 1000 nM	< 50 nM
CN(C)C(=O)C(O)c1cncc(-c2cnc3[nH]cc(-c4ccccc4OC4CC4)c3c2)c1 (stereo not drawn)	< 1000 nM	< 1000 nM	< 50 nM
COc1ccccc1-c1c[nH]c2ncc(-c3cncc(C(O)C(=O)N(C)Cc4ccncc4)c3)cc12 (stereo not drawn)	> 1000 nM	> 1000 nM	< 50 nM
COc1ccccc1-c1n[nH]c2ncc(-c3cccc(C(O)C(=O)N(C)CCO)c3)cc12 (stereo not drawn)	< 1000 nM	< 1000 nM	< 50 nM
COc1ncccc1-c1c[nH]c2ncc(-c3cncc(C(O)C(=O)N(C)C)c3)cc12 (stereo not drawn)	< 1000 nM	> 1000 nM	< 50 nM
COc1ccccc1-c1n[nH]c2ncc(-c3cccc(C(O)c4ccccn4)c3)cc12 (stereo not drawn)	< 1000 nM	> 1000 nM	< 50 nM
CNC(C(=O)N(C)C)c1cccc(-c2cnc3[nH]nc(-c4ccccc4OC)c3c2)c1 (stereo not drawn)	> 1000 nM	> 1000 nM	< 50 nM
CNC(C(=O)N1CCC(N(C)C)C1)c1cccc(-c2cnc3[nH]nc(-c4ccccc4OC)c3c2)c1 (stereo not drawn)	> 1000 nM	> 1000 nM	< 50 nM

From patent publication US8242280B2, “Fused ring heterocycle kinase modulators” (SGX Pharmaceuticals, Inc., priority 2007, dated 2012)
